“Also recorded” adds a separate entry of the source.
Experiments:
[1] = system: serum lipid levels; assay: Example 5: fixed-dose or escalating doses 12 weeks in hyperlipidemia, efficacy; format: in vivo, human; details: for LDL-C level decrease: dose escalation group
Procedure: (§1) Fifty-two Japanese patients with hyperlipidemia (LDL-C between 140 and 220 mg/dL; TG≦400 mg/dL) participated in the study. […] One group received a fixed dose of 2 mg per tablet through the entire study. The other group received escalating doses of 0.5 mg (weeks 1-4), 1 mg (weeks 5-8), and 2 mg (weeks 9-12). For the efficacy analysis, 50 subjects were observed (25 in the fixed-dose group and 25 in the dose escalation group).
(§2) The objective of this study was preliminary evaluation of the efficacy (based on serum lipid levels), safety, and pharmacokinetics of the compound of formula (I) administered orally twice daily after breakfast and supper for 12 weeks as a fixed dose (4 mg/day) or escalating dose (1 mg/day, 2 mg/day and 4 mg/day) regimen in patients with hyperlipidemia.

[2] = 3-month oral repeated dose toxicity study in dogs; format: in vivo; details: 25 mg/kg
[3] = system: serum lipid levels; assay: Example 6: serum lipid levels / pharmacodynamics; format: in vivo, human
Text: (§3) Originally, the study was planned as 4 sequential cohorts of healthy male Caucasian subjects (Cohorts 1 to 4) followed by a cohort of male Caucasian patients with elevated triglycerides (HTG patients, Cohort 5). An additional cohort of healthy male Caucasian subjects (Cohort 4.1) was enrolled into the study (6 cohorts in total). The cohorts were as follows: Cohorts 1 to 4.1 had healthy Caucasian males, aged 18-45 years with a body weight of 60-100 kg and body mass index (BMI) between 19-28 kg/m^2 at screening and fasting triglycerides less than 1.69 mmol/L (less than 150 mg/dL) at the screening visit and Day-3. Cohort 5 had Caucasian males, aged 18-50 years with a body weight of 60-115 kg and BMI less than 35 kg/m^2 at screening and with elevated fasting triglycerides (TG≧1.69 mmol/L and <5.62 mmol/L; ≧150 mg/dL and <500 mg/dL) at the screening visit and Day-3.
(§4) The planned treatment for Cohorts 1 to 4 was twice daily administration of 5 mg, 10 mg or 15 mg the compound of formula (I)/placebo, or once daily administration of 30 mg the compound of formula (1)/placebo. […] As only the compound of formula (I) 5 mg capsules were supplied for this study, doses were administered once daily to determine the maximum tolerated dose, and the planned doses for each subsequent cohort were amended based on the safety and tolerability data obtained from the preceding cohort. The dose level and dosing schedule planned for the patients in Cohort 5 was determined by the maximum tolerated dose and dosing schedule as reported from the planned Cohorts 1 to 4.1.
(§5) Twelve healthy male Caucasian subjects were enrolled in each of Cohorts 1 to 4.1; dose cohorts were randomized in a ratio 9:3 to receive the compound of formula (I) or placebo, respectively, at the dose level associated with that cohort. Twelve male Caucasian patients with elevated triglycerides were randomized in a ratio of 8:4 to receive the compound of formula (I) or placebo, respectively, at the maximum tolerated dose level and dosing schedule.

[4] = Example 6: pharmacokinetics; format: in vivo, human; details: 5 to 20 mg QD and BID, healthy males; generally BLQ
Text: as §3, §4, §5

[5] = Example 6: ascending dose study in healthy males and HTG patients, safety; format: in vivo
Text: as §3, §4, §5
This study was conducted to investigate the safety and tolerability of the compound of formula (I) and to determine the pharmacokinetic and pharmacodynamic profiles of the compound of formula (I) administered, either once or twice a day, for 14 days to healthy non-fasting male Caucasian subjects and male Caucasian HTG patients. The planned treatment for Cohorts 1 to 4 was twice daily administration of 5 mg, 10 mg or 15 mg the compound of formula (I)/placebo, or once daily administration of 30 mg the compound of formula (I)/placebo. […] Consequently, doses were administered once daily to healthy volunteers, and the planned doses for each subsequent cohort were amended based on the safety and tolerability data obtained from the preceding cohort.

[6] = Example 8: 12-week study in obese subjects, efficacy; details: for mean change from baseline to EOT in body weight: 12 weeks
Text: This example involved a clinical study of the compound of formula (I), which was a randomized, double-blind, placebo-controlled, parallel group study to evaluate the efficacy of the compound of formula (I) administered twice daily for twelve weeks in obese subjects.
The study had 180 participants. The 180 subjects comprised 59 males and 121 females, 18 to 65 years old, with BMI≧30 kg/m^2 to <40 kg/m^2. The subjects were separated into four arms of 45 subjects, including one arm as placebo. Each test subject received a tablet taken orally over a period of 12 weeks after breakfast and dinner (BID) (specifically, within 180 minutes of the commencement of eating) of 1 mg, 2.5 mg, or 3.5 mg, using one or multiples of tablets of 1 mg and 2.5 mg of the compound of formula (I) to achieve the total dose. Of the total entrants, 40 entrants completed the 1 mg regimen, 42 entrants completed the 2.5 mg regimen, 41 entrants completed the 3.5 mg regimen, and 42 entrants completed the placebo regimen.
This study was designed to investigate the weight loss effect of the compound of formula (I) administered BID for 12 weeks to obese subjects. The effect of the compound of formula (I) on ancillary efficacy measures (e.g., waist circumference, waist-hip ratio, percent body fat, serum lipid parameters, and markers related to glycemic control, obesity, and inflammation) was also evaluated, as was safety. The primary efficacy variable was body weight change from baseline after 12 weeks of treatment.

[7] = Example 8: safety; format: in vivo, human
Text: The study had 180 participants.

[8] = system: serum lipid levels; assay: Example 2: serum lipid levels; format: in vivo, human
Procedure: (§6) Each tablet contained 5 mg (BID), 10 mg (QD), 20 mg (QD), or 30 mg (QD).

[9] = Example 2: plasma and urine pharmacokinetics; format: in vivo, human
Procedure: as §6

[10] = Example 5: pharmacokinetics; format: in vivo, human; details: subjects other than two
Procedure: as §1, §2

[11] = Earlier phase 1 single dose clinical study; format: in vivo, human
[12] = Example 7: weight loss and tolerability in obese subjects; details: for mean changes from baseline in weight: 2 weeks
Procedure: This example involved a clinical study of the compound of formula (I), which was a randomized, double-blind, placebo-controlled, ascending dose study to evaluate the safety, tolerability and pharmacokinetics/pharmacodynamics of the compound of formula (I) tablets administered twice daily for two weeks in obese subjects.
The subjects were separated into four arms of nine (one with ten) test subjects (which were administered the compound of formula (I)) and three placebo subjects.

[13] = 10, 20, 30 mg QD, initial dose Day 1

SMILES: CCOC(=O)C(COC(=O)Cc1ccc(NC(=O)c2ccccc2-c2ccc(C(F)(F)F)cc2)c(C(=O)N(C)C)c1)(C(=O)OCC)c1ccccc1 [compound of formula (I), diethyl 2-((2-(3-(dimethylcarbamoyl)-4-(4′-(trifiuoromethyl)biphenyl-2-ylcarboxamido)phenyl)acetoxy)methyl)-2-phenyl malonate]
- TG level ([1]; both groups): tended to increase
- LDL-C level decrease ([1]; Week 10 (4 mg/day)): −7.24%
- LDL-C level decrease ([1]; Week 12 (4 mg/day)): −7.12%
- LDL-C level maximum decrease ([1]; fixed-dose group (2 mg BID), Week 2): −6.38%
- LDL-C level change ([1]; fixed-dose group, after Week 2 through Week 12): −1.96 to −5.98%
- toxicity findings ([2]; 3-month safety study): no toxicity findings
- vitamins D and E ([2]; 3 months oral): decreased or tended to decrease
- effects on LDL-C, HDL-C, VLDL-C, and VLDL-TG vs QD regimens ([3]; 5 mg BID): more marked effects
- expected postprandial increase of TG and chylomicron-TG ([3]; healthy subjects and patients with high TG): suppressed
- campesterol (marker of cholesterol absorption) ([3]; in vivo): affects campesterol
- lathosterol (marker of cholesterol synthesis by the liver) ([3]; in vivo): not lathosterol
- impact on triglyceride-rich lipoproteins (ApoCII, ApoCIII, VLDL-TG, VLDL-C) ([3]; once-daily regimen): no discernible impact
- plasma concentrations of the compound of formula (I) [4]: < 3 ng/mL
- subjects withdrawn due to adverse events ([5]; 5 mg BID, Cohort 1): 5 subjects
- tolerability ([5]; 5 mg BID, HTG patients, Cohort 5): reasonably well tolerated
- tolerability ([5]; 5 mg BID, healthy subjects, Cohort 1): poorly tolerated; also recorded: not well tolerated
- subjects reporting treatment-emergent adverse events ([5]; HTG patients receiving compound, Cohort 5): 88 % of treatment group
- safety analyses (liver MRIs, tryptase, fat soluble vitamins, fecal fat) ([5]; any cohort): no clinically relevant findings
- subjects reporting treatment-emergent adverse events ([5]; healthy subjects receiving compound): 76 % of treatment group
- tolerability ([5]; healthy subjects, Cohorts 2 (5 mg QD), 3 (10 mg QD), 4 (15 mg QD), 4.1 (20 mg QD)): reasonably well-tolerated
- fatty liver (liver MRI) ([5]; human, in vivo): without the presence of fatty liver
- renal function tests ([5]; human, in vivo): did not suggest drug-related nephrotoxicity or hyperglycaemia
- mean change from baseline to EOT in body weight ([6]; 1 mg BID): -0.70 kg
- mean change from baseline to EOT in body weight ([6]; 2.5 mg BID): -1.74 kg
- mean change from baseline to EOT in body weight ([6]; 3.5 mg BID): -2.19 kg
- waist circumference, waist-hip ratio, percent body fat vs placebo ([6]; after 12 weeks): No statistically significant differences
- mean decreases from baseline LDL-C ([6]; after 12 weeks, 3 compound groups): −5.90 to −8.27 mg/dL
- triglyceride levels ([6]; all treatment groups): increased from baseline
- TC and ApoB ([6]; human, in vivo): improvements (reductions)
- weight loss by perilipin gene mutation ([6]; human, in vivo): no differences
- incidence of drug-related decreased appetite ([7]; 1 mg BID): 4.4%
- incidence of drug-related decreased appetite ([7]; 2.5 mg BID): 20.0%
- subjects prematurely discontinued due to diarrhea ([7]; 2.5 mg BID): 1 subject
- incidence of drug-related decreased appetite ([7]; 3.5 mg BID): 22.2%
- subjects prematurely discontinued due to diarrhea ([7]; 3.5 mg BID): 2 subject
- tolerability ([7]; 1 to 3.5 mg BID, 12 weeks): generally well tolerated
- fat-soluble vitamins or coagulation factors ([7]; in vivo): no clinically significant changes
- liver function parameters (AST, ALT, alkaline phosphatase) PCS values ([7]; in vivo): no subject had a PCS value
- postprandial elevations for TG, HDL-TG, LDL-TG, Midband-TG, VLDL-TG, CM-TG, and ApoB48 ([8]; active group): suppressed
- TC, HDL-C, LDL-C, and ApoB values ([8]; by and after Day 7): decreased
- subjects with Cmin detected sporadically ([9]; 5 mg BID): 4 of 6 subjects
- Cmin of the compound of formula (I) ([9]; 10 mg QD, Day 2 to 14): below the limit of quantization
- subjects with Cmin detected sporadically ([9]; 20 mg QD): 1 of 6 subjects
- subjects with Cmin detected sporadically ([9]; 30 mg QD): 4 of 6 subjects
- AUC0-24hr dose proportionality [9, 13]: greater than dose-proportional
- Cmax dose proportionality [9, 13]: greater than dose-proportional
- plasma compound of formula (I) ([9]; after initial dose on Day 1, all groups): quantifiable
- compound in urine ([9]; all groups): not quantifiable in urine
- Cmin of the compound of formula (I) ([9]; all subjects): less than 3 ng/mL
- Cmax and AUC0-24hr dose proportionality ([9]; final dose on Day 14): dose-proportional
- Cmin of the compound of formula (I) [10]: below the lower limit of quantization
- doses at which diarrhea was observed [11]: ≥ 60 mg
- mean changes from baseline in weight ([12]; 1 mg BID): -0.31 kg
- average weight loss ([12]; 1 mg BID, 14 days): 0.31 kg
- mean changes from baseline in weight ([12]; 2.5 mg BID): -0.68 kg
- average weight loss ([12]; 2.5 mg BID, 14 days): 0.68 kg
- mean changes from baseline in weight ([12]; 3.5 mg BID): -1.39 kg
- average weight loss ([12]; 3.5 mg BID, 14 days): 1.39 kg
- average weight loss ([12]; 5 mg BID, 14 days): 2.07 kg
- average weight loss ([12]; 5 mg BID, Day 10 (n=9)): 2.32 kg
- subjects who withdrew due to GI-related adverse events prior to Day 14 ([12]; 5 mg dose group): six
- tolerability at 5 mg BID ([12]; obese subjects): not at 5 mg BID
- well tolerated doses ([12]; obese subjects): up to 3.5 mg BID

— patent US20120302636A1, “METHOD OF TREATING A DISORDER ASSOCIATED WITH MTP” (priority 2009, published 2012)
